Data published in patent publication US20060057109A1 (priority 2002, published 2006).
Where two headings read alike, the source gives them in different places.

Columns and labels:
9L/P450 cells [1] = system: 9L/P450 cells
9L/P450 cells [2] = system: 9L/P450 cells; remark: listed apart in the source
9L/LacZ bystander cells = assay: Bystander cytotoxicity, colony formation assay; format: cell-based, rat
Procedure: The cytotoxicity conferred by 9L/P450 and 9L/P450/p35-9 cells on 9L/LacZ bystander cells was assayed using one of two protocols. […] Following this drug treatment cell survival was determined for each of the three cell lines (9L/P450, 9L/P450/p35-9 and 9L/LacZ) using a colony formation assay. In the experiment shown in FIGS. 6A and 6B (protocol 1) the 9L/LacZ bystander cells were plated on top of the 9L/P450 or 9L/P450/p35-9 cells, enabling the two cell populations to be in direct cell-cell contact. […]
Bystander Experiments. […] The cells were then grown in drug-free media for an additional 16 hr (i.e., 24 hr from the start of the second drug treatment), at which point the cells were trypsinized, collected, counted and replated at various densities in 6 well plates to allow for the growth of individual colonies, as follows: Drug-free control cells were replated in duplicate at 100, 150 and 250 cells/well. […] LacZ-positive colonies containing≧50 cells were counted. Cells were then re-stained with crystal violet and the total number of colonies was determined. The number of 9L/P450 or 9L/P450/p35-9 colonies on each plate was then calculated by subtracting number of the Lac Z-positive colonies from each sample. The colony efficiency (number of colonies/number of cells seeded) was then calculated for each treatment group. […]

9L/P450/p35-9 cells [3] = assay: Colony formation assay after CPA treatment; format: cell-based, rat; conditions: 1 × 8 hr 1 mM CPA
Text: Relative colony formation activities are shown in parenthesis.

9L/P450/p35-9 cells [4] = system: 9L/P450/p35-9 cells
Procedure: Cells were then cultured for up to 17 days following the initial drug treatment. […] Cells remaining on the plates at each indicated time point were stained with crystal violet. Data shown are mean+/−half the range for A595 values n=2 samples at each time point.
Growth Inhibition Assay: 9L/P450 and 9L/P450-derived cells lines were plated at 1.5×10^5 cells per well in 12 well dishes in 1.5 ml media unless indicated otherwise. […] Cells remaining on the plate at the indicated times were washed twice with cold PBS and then stained with crystal violet solution, as described previously (Schwartz and Waxman, Mol Pharmacol. 60:1268-1279. (2001)). The stain was eluted from the cells and the absorbance read at 595 nm to determine the relative protein content of each sample (Jounaidi et al., Cancer Res. 58:4391-4401 (1998)).

9L/P450 cells [5] = conditions: 1 × 8 hr 1 mM CPA
[6] = human, in vivo; cited from earlier work
[7] = system: caspase 8 and caspase 9 in CPA-treated 9L/P450 cells; assay: Caspase 8 and caspase 9 activity in extracts of CPA-treated cells; format: cell-based, rat; conditions: IAP expressed by retroviral transduction, cells treated with 1 mM CPA
Procedure: 9L/P450 cells were infected with retrovirus encoding the IAPs p35 or Survivin. […] Shown in FIG. 1B are the caspase 8 and caspase 9 activities of the individual cell lines (mean+/−half the range for n=2 separate experiments).
Caspase Activity Measurements: Caspase activities were assayed as described previously (Schwartz and Waxman, Mol Pharmacol. 60:1268-1279. (2001)). […] Floating and attached cells were collected, pooled, dissolved in lysis buffer (10 mM Hepes buffer (pH 7.4) containing 2 mM EDTA, 0.1% CHAPS detergent, 5 mM DTT, 350 ng/ml PMSF, 10 ng/ml pepstatin A, 10 ng/ml aprotinin, and 20 ng/ml leupeptin) and then subjected to three freeze-thaw cycles. Lysates were spun and the supernatant (cell extract) was assayed for caspase 3, 8 and 9 activities by incubation with caspase form-selective substrates: Ac-DEVD-AMC (Biomol; cat # P-411) for caspase 3 (Talanian et al., J Biol. Chem. 272:9677-9682 (1997); Thomberry et al., J Biol. Chem. 272:17907-17911 (1997)), LETD-AFC (BioRad; cat# 170-3186) for caspase 8 and Ac-LEHD-AFC (BioRad; cat# 170-3190) for caspase 9.

[8] = three 8 hr treatments with 1 mM CPA

CCCCS(=N)(=O)CCC(N)C(=O)O (stereo not shown) [BSO, buthionine sulfoximine]
effect of BSO pretreatment on cell growth (9L/P450 cells [1]): no effect on cell growth | cell survival (9L/P450 cells [1]; BSO pretreatment (50 μM for 24 hr), then 1 mM CPA for 72 hr): 13% | decrease in the cell's capacity to produce and release 4-OH-CPA into the culture media (9L/P450 cells [2]): 86%

O=P1(N(CCCl)CCCl)NCCCO1 (stereo not shown) [CPA, cyclophosphamide]
bystander cell killing (9L/LacZ bystander cells; co-cultured with 9L/P450/p35-9 cells across a permeable membrane, second 8 hr CPA treatment): 70-80% | bystander cell killing (9L/LacZ bystander cells; co-cultured with CPA-pretreated 9L/P450 cells across a permeable membrane, second CPA treatment): little or no bystander cell killing | Relative colony formation activity (in parenthesis) (9L/P450/p35-9 cells [3]; No Drug = 100): 2.9 ± 0.9 | Colonies per 10,000 cells (9L/P450/p35-9 cells [3]; mean ± SD n=3): 150 ± 49 | time to death of cells (9L/P450 cells [1]; 1 mM CPA continuously): 3 to 4 days | cellular response to CPA in the absence of p35 (9L/P450 cells [1]; 1 mM CPA for 72 hr): cytotoxic response | cell survival (9L/P450 cells [1]; 1 mM CPA for 72 hr, without BSO): 62% | cell killing (9L/P450 cells [1]; single 8 hr CPA treatment): not sufficient to kill | day by which all cells died (9L/P450 cells [1]; [8]): 6 to 9 days | time to death of cells (9L/P450/p35-9 cells [4]; 1 mM CPA continuously): 8 days | cell killing (9L/P450/p35-9 cells [4]; single 8 hr CPA treatment): not sufficient to kill | day by which all cells died (9L/P450/p35-9 cells [4]; [8]): ≤ 17 days | Relative colony formation activity (in parenthesis) (9L/P450 cells [5]; No Drug = 100): 1.1 ± 0.5 | Colonies per 10,000 cells (9L/P450 cells [5]; mean ± SD n=3): 77 | half-life [6]: 8 h

hIAP2: human IAP (inhibitor of apoptosis), myc-tagged cDNA, expressed by retroviral transduction
inhibition of caspase activity [7]: less effective caspase inhibition
